Source: the supplement of paper PMC10307832

Experiments:
Test in all cases: relative viability (nuclei count vs DMSO), 5 days (fraction); higher = more cells survive
201T = tested on: 201T
Summary of the method: (§1)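 For relative viability, nuclei counts in treated wells were divided by those in vehicle wells. Lung cancer cell lines had been pin-tool dosed in 1536-well plates the day after seeding and cultured for 5 days, then fixed and stained in one step (final 0.05% Triton X-100, 1% formaldehyde, 1 ug/ml Hoechst) and imaged at 4×. Doses were one drug alone or a fixed anchor-drug dose plus five library-drug doses (not always all listed) in √10 steps, and values are duplicate-plate medians.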

BEN = tested on: BEN
Summary of the method: as §1

CAL-12T = tested on: CAL-12T
Summary of the method: as §1

HCC-78 = tested on: HCC-78
Summary of the method: as §1

HOP-62 = tested on: HOP-62
Summary of the method: as §1

LCLC-97TM1 = tested on: LCLC-97TM1
Summary of the method: as §1

LOU-NH91 = tested on: LOU-NH91
Summary of the method: as §1

NCI-H1355 = tested on: NCI-H1355
Summary of the method: as §1

NCI-H1395 = tested on: NCI-H1395
Summary of the method: as §1

NCI-H1563 = tested on: NCI-H1563
Summary of the method: as §1

NCI-H1651 = tested on: NCI-H1651
Summary of the method: as §1

NCI-H1793 = tested on: NCI-H1793
Summary of the method: as §1

NCI-H1915 = tested on: NCI-H1915
Summary of the method: as §1

NCI-H1944 = tested on: NCI-H1944
Summary of the method: as §1

NCI-H2126 = tested on: NCI-H2126
Summary of the method: as §1

NCI-H2347 = tested on: NCI-H2347
Summary of the method: as §1

NCI-H3122 = tested on: NCI-H3122
Summary of the method: as §1

NCI-H322M = tested on: NCI-H322M
Summary of the method: as §1

NCI-H441 = tested on: NCI-H441
Summary of the method: as §1

NCI-H650 = tested on: NCI-H650
Summary of the method: as §1

NCI-H838 = tested on: NCI-H838
Summary of the method: as §1

SK-LU-1 = tested on: SK-LU-1
Summary of the method: as §1

SW 1573 = tested on: SW 1573
Summary of the method: as §1

`CN1CCN(CCOc2cc(OC3CCOCC3)c3c(Nc4c(Cl)ccc5c4OCO5)ncnc3c2)CC1` [Saracatinib] + COc1cc2c(Oc3ccc(NC(=O)C4(C(=O)Nc5ccc(F)cc5)CC4)cc3F)ccnc2cc1OCCCN1CCOCC1 [Foretinib] (partner 0.25 µM) was tested, and the relative viability (201T; first compound 0.02 µM) was 1.16, the relative viability (201T; first compound 0.2 µM) was 0.752 and the relative viability (201T; first compound 0.6325 µM) was 1. The relative viability (201T; first compound 2 µM) was 0.693, the relative viability (BEN; first compound 0.02 µM) was 0.753 and the relative viability (BEN; first compound 0.6325 µM) was 0.707. It also gave a relative viability (BEN; first compound 2 µM) of 0.476, a relative viability (CAL-12T; first compound 0.02 µM) of 1.12 and a relative viability (CAL-12T; first compound 0.2 µM) of 1.02. It also gave a relative viability (CAL-12T; first compound 0.6325 µM) of 1.33, a relative viability (CAL-12T; first compound 2 µM) of 1.18 and a relative viability (HCC-78; first compound 0.02 µM) of 0.534. It also gave a relative viability (HCC-78; first compound 0.6325 µM) of 0.678, a relative viability (HCC-78; first compound 2 µM) of 0.413 and a relative viability (HOP-62; first compound 0.02 µM) of 1.17. The relative viability (HOP-62; first compound 0.2 µM) was 1.02, the relative viability (HOP-62; first compound 0.6325 µM) was 1.13 and the relative viability (HOP-62; first compound 2 µM) was 1.16. The relative viability (LCLC-97TM1; first compound 0.02 µM) was 1.06, the relative viability (LCLC-97TM1; first compound 0.2 µM) was 0.763 and the relative viability (LCLC-97TM1; first compound 0.6325 µM) was 0.96. The relative viability (LCLC-97TM1; first compound 2 µM) was 0.825, the relative viability (LOU-NH91; first compound 0.02 µM) was 0.867 and the relative viability (LOU-NH91; first compound 0.2 µM) was 0.661. It also gave a relative viability (LOU-NH91; first compound 0.6325 µM) of 0.609, a relative viability (LOU-NH91; first compound 2 µM) of 0.488 and a relative viability (NCI-H1355; first compound 0.02 µM) of 0.965. For the same molecule, the relative viability (NCI-H1355; first compound 0.2 µM) was 0.991, the relative viability (NCI-H1355; first compound 0.6325 µM) was 1.1 and the relative viability (NCI-H1355; first compound 2 µM) was 0.934. The relative viability (NCI-H1395; first compound 0.02 µM) was 1.08, the relative viability (NCI-H1395; first compound 0.2 µM) was 0.908 and the relative viability (NCI-H1395; first compound 0.6325 µM) was 1.03. The relative viability (NCI-H1395; first compound 2 µM) was 0.856, the relative viability (NCI-H1563; first compound 0.02 µM) was 0.924 and the relative viability (NCI-H1563; first compound 0.2 µM) was 0.782. For the same molecule, the relative viability (NCI-H1563; first compound 0.6325 µM) was 0.76, the relative viability (NCI-H1563; first compound 2 µM) was 0.649 and the relative viability (NCI-H1651; first compound 0.02 µM) was 0.844. For the same molecule, the relative viability (NCI-H1651; first compound 0.2 µM) was 0.561, the relative viability (NCI-H1651; first compound 0.6325 µM) was 0.908 and the relative viability (NCI-H1651; first compound 2 µM) was 0.657. The relative viability (NCI-H1793; first compound 0.02 µM) was 0.685, the relative viability (NCI-H1793; first compound 0.6325 µM) was 0.777 and the relative viability (NCI-H1793; first compound 2 µM) was 0.454. For the same molecule, the relative viability (NCI-H1915; first compound 0.02 µM) was 1.05, the relative viability (NCI-H1915; first compound 0.2 µM) was 1.05 and the relative viability (NCI-H1915; first compound 0.6325 µM) was 1.12. The relative viability (NCI-H1915; first compound 2 µM) was 0.96, the relative viability (NCI-H1944; first compound 0.02 µM) was 0.868 and the relative viability (NCI-H1944; first compound 0.6325 µM) was 0.935. The relative viability (NCI-H1944; first compound 2 µM) was 0.549, the relative viability (NCI-H2126; first compound 0.02 µM) was 1.15 and the relative viability (NCI-H2126; first compound 0.2 µM) was 1.22. It also gave a relative viability (NCI-H2126; first compound 0.6325 µM) of 1.17, a relative viability (NCI-H2126; first compound 2 µM) of 1.07 and a relative viability (NCI-H2347; first compound 0.02 µM) of 1.32. The relative viability (NCI-H2347; first compound 0.2 µM) was 0.852, the relative viability (NCI-H2347; first compound 0.6325 µM) was 0.469 and the relative viability (NCI-H2347; first compound 2 µM) was 0.712. The relative viability (NCI-H3122; first compound 0.02 µM) was 0.927, the relative viability (NCI-H3122; first compound 0.2 µM) was 0.891 and the relative viability (NCI-H3122; first compound 0.6325 µM) was 0.9. It also gave a relative viability (NCI-H3122; first compound 2 µM) of 0.66, a relative viability (NCI-H322M; first compound 0.02 µM) of 1.01 and a relative viability (NCI-H322M; first compound 0.2 µM) of 0.921. The relative viability (NCI-H322M; first compound 0.6325 µM) was 0.826, the relative viability (NCI-H322M; first compound 2 µM) was 0.403 and the relative viability (NCI-H441; first compound 0.02 µM) was 1.04. It also gave a relative viability (NCI-H441; first compound 0.2 µM) of 0.985, a relative viability (NCI-H441; first compound 0.6325 µM) of 1.08 and a relative viability (NCI-H441; first compound 2 µM) of 1.13. The relative viability (NCI-H650; first compound 0.02 µM) was 0.996, the relative viability (NCI-H650; first compound 0.2 µM) was 0.922 and the relative viability (NCI-H650; first compound 0.6325 µM) was 1.03. For the same molecule, the relative viability (NCI-H650; first compound 2 µM) was 1.03, the relative viability (NCI-H838; first compound 0.02 µM) was 1.05 and the relative viability (NCI-H838; first compound 0.2 µM) was 0.908. For the same molecule, the relative viability (NCI-H838; first compound 0.6325 µM) was 0.938, the relative viability (NCI-H838; first compound 2 µM) was 0.916 and the relative viability (SK-LU-1; first compound 0.02 µM) was 0.602. It also gave a relative viability (SK-LU-1; first compound 0.2 µM) of 0.51, a relative viability (SK-LU-1; first compound 0.6325 µM) of 0.415 and a relative viability (SK-LU-1; first compound 2 µM) of 0.298. It also gave a relative viability (SW 1573; first compound 0.02 µM) of 0.895, a relative viability (SW 1573; first compound 0.2 µM) of 0.711 and a relative viability (SW 1573; first compound 0.6325 µM) of 1.14. For the same molecule, the relative viability (SW 1573; first compound 2 µM) was 0.792.
